The values below are quoted from earlier work in patent US6461591B1, “Medical aerosol formulations” (Jago Research AG, priority 1997, dated 2002).

For the data set the following is noted: at 20° C.

As to `FC(C(F)(F)F)C(F)(F)F` [HFA 227, 1,1,1,2,3,3,3-heptafluoropropane], the density result is on record as “about 1.4 mg/ml” and the vapour pressure entry was “about 4.2 bar”.
Regarding `FCC(F)(F)F` [HFA 134a, 1,1,1,2-tetrafluoroethane], the vapour pressure entry is given as “about 6 bar”.
